Experimental data taken from article PMC5552880, “The Bitter Taste Receptor TAS2R16 Achieves High Specificity and Accommodates Diverse Glycoside Ligands by using a Two-faced Binding Pocket” (Scientific Reports, 2017).
Substitutions are numbered along the chain they refer to. Where “and” joins values, the source holds several entries; their conditions need not be identical. Equal values may be shown once. Read-outs that look alike come from different tables or passages of the source.

Assays:
D46A TAS2R16 = target: T1, D46A TAS2R16 (Homo sapiens, UniProt Q9NYV7, D46A); assay: Ca2+ flux assay, mutation library clone D46A; type: cell-based; conditions: 3 mM salicin, mean (range, max-min), n=3
T1 construct: FLAG (N); expressed in transfected cells; host or cells: HEK-293T
Experimental: (§1) The TAS2R16 mutation library was tested for function using a Ca^2+ flux assay as described previously. Later screens of individual TAS2R16 mutant clones used 4-nitrophenyl-β-D-glucopyranoside. Briefly, HEK-293T cells, in poly-lysine coated, black 384-well plates with clear bottoms (Costar), were transfected with the TAS2R16 mutation library, and a plasmid expressing a Gα16 chimera containing the last 44 amino acids of rat gustducin (Gα16gust44). Cells were incubated for 22 hours at 37 °C then washed twice with a calcium indicator dye in HBSS containing 20 mM HEPES (Calcium 4 Assay kit, Molecular Devices), incubated with HBSS for 1.5 hr, then moved to a Flexstation II-384 (Molecular Devices) set at 32 °C. […] Concentrations for mutation library screening were chosen to be approximately 2 to 3 times higher than the EC50 values for the ligands to maximize the sensitivity of detecting decreases in signaling due to the mutation in each clone.
(§2) For Ca^2+ flux assays, the value of fluorescence at 30 seconds after ligand addition (the time of peak signal for wild-type TAS2R16) was used as the maximum value. […] Data sets were analyzed and represented as percentage over baseline signal. Mean and standard deviation values were calculated for each clone from replicate assay data.

N96T TAS2R16 = target: T2, N96T TAS2R16 (Homo sapiens, UniProt Q9NYV7, N96T); assay: Ca2+ flux assay, N96T TAS2R16 variant; type: cell-based; conditions: Fig. 7 dose-response
T2 construct: FLAG (N); expressed in transfected cells; host or cells: HEK-293T
Experimental: as §1, §2
Ligand dose-response data was analyzed with Graphpad Prism 5 software. […]

N172K TAS2R16 = target: T3, N172K TAS2R16 (Homo sapiens, UniProt Q9NYV7, N172K); assay: Ca2+ flux assay, mutation library clone N172K; type: cell-based; conditions: 3 mM salicin, mean (range, max-min), n=3
T3 construct: Each construct in the mutation library was tested for full-length TAS2R16 translation; V5; expressed in transfected cells; host or cells: HEK-293T
Experimental: as §1, §2

TAS2R16 = conditions: read-out: EC50, reported value; cited from earlier work
Y14H TAS2R16 = target: T4, Y14H TAS2R16 (Homo sapiens, UniProt Q9NYV7, Y14H); assay: Ca2+ flux assay, mutation library clone Y14H; type: cell-based; conditions: 3 mM salicin, mean (range, max-min), n=3
T4 construct: FLAG (N); expressed in transfected cells; host or cells: HEK-293T
Experimental: as §1, §2

W261A TAS2R16 = target: T5, W261A TAS2R16 (Homo sapiens, UniProt Q9NYV7, W261A); assay: Ca2+ flux assay, W261A TAS2R16 variant; type: cell-based
T5 construct: FLAG (N); expressed in transfected cells; host or cells: HEK-293T
T5 sequence (Q9NYV7 1-291 W261A): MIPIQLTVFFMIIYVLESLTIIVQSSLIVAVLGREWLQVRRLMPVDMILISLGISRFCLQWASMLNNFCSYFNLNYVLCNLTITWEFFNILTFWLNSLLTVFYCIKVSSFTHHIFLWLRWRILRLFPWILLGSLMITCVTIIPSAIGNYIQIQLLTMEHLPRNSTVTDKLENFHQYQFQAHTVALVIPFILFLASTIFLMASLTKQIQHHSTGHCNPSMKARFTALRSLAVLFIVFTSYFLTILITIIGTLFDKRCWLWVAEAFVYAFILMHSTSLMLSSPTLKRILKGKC
Experimental: as §1
(§3) For Ca^2+ flux assays, the value of fluorescence at 30 seconds after ligand addition (the time of peak signal for wild-type TAS2R16) was used as the maximum value. […] Raw data obtained from surface expression and flux experiments were normalized to the values for wild-type TAS2R16 on each plate. Data sets were analyzed and represented as percentage over baseline signal. Mean and standard deviation values were calculated for each clone from replicate assay data.
(§4) Ligand dose-response data was analyzed with Graphpad Prism 5 software. Data was baseline subtracted and then fit using a sigmoidal dose-response (variable slope) equation.

M271R TAS2R16 = target: T6, M271R TAS2R16 (Homo sapiens, UniProt Q9NYV7, M271R); assay: Ca2+ flux assay, mutation library clone M271R; type: cell-based; conditions: 3 mM salicin, mean (range, max-min), n=3
T6 construct: Each construct in the mutation library was tested for full-length TAS2R16 translation; V5; expressed in transfected cells; host or cells: HEK-293T
Experimental: as §1, §2

C104R TAS2R16 = target: T7, C104R TAS2R16 (Homo sapiens, UniProt Q9NYV7, C104R); assay: Ca2+ flux assay, mutation library clone C104R; type: cell-based; conditions: 3 mM salicin, mean (range, max-min), n=3
T7 construct: Each construct in the mutation library was tested for full-length TAS2R16 translation; V5; expressed in transfected cells; host or cells: HEK-293T
Experimental: as §1, §2

I21F TAS2R16 = target: T8, I21F TAS2R16 (Homo sapiens, UniProt Q9NYV7, I21F); assay: Ca2+ flux assay, mutation library clone I21F; type: cell-based; conditions: 3 mM salicin, mean (range, max-min), n=3
T8 construct: FLAG (N); expressed in transfected cells; host or cells: HEK-293T
Experimental: as §1, §2

L276R TAS2R16 = target: T9, L276R TAS2R16 (Homo sapiens, UniProt Q9NYV7, L276R); assay: Ca2+ flux assay, mutation library clone L276R; type: cell-based; conditions: 3 mM salicin, mean (range, max-min), n=3
T9 construct: V5; expressed in transfected cells; host or cells: HEK-293T
Experimental: as §1, §2

W61R TAS2R16 = target: T10, W61R TAS2R16 (Homo sapiens, UniProt Q9NYV7, W61R); assay: Ca2+ flux assay, mutation library clone W61R; type: cell-based; conditions: 3 mM salicin, mean (range, max-min), n=3
T10 construct: V5; expressed in transfected cells; host or cells: HEK-293T
Experimental: as §1, §2

L134R TAS2R16 = target: T11, L134R TAS2R16 (Homo sapiens, UniProt Q9NYV7, L134R); assay: Ca2+ flux assay, mutation library clone L134R; type: cell-based; conditions: 3 mM salicin, mean (range, max-min), n=3
T11 construct: Each construct in the mutation library was tested for full-length TAS2R16 translation; V5; expressed in transfected cells; host or cells: HEK-293T
Experimental: as §1, §2

M64R TAS2R16 = target: T12, M64R TAS2R16 (Homo sapiens, UniProt Q9NYV7, M64R); assay: Ca2+ flux assay, mutation library clone M64R; type: cell-based; conditions: 3 mM salicin, mean (range, max-min), n=3
T12 construct: Each construct in the mutation library was tested for full-length TAS2R16 translation; V5; expressed in transfected cells; host or cells: HEK-293T
Experimental: as §1, §2

C58R TAS2R16 = target: T13, C58R TAS2R16 (Homo sapiens, UniProt Q9NYV7, C58R); assay: Ca2+ flux assay, mutation library clone C58R; type: cell-based; conditions: 3 mM salicin, mean (range, max-min), n=3
T13 construct: V5; expressed in transfected cells; host or cells: HEK-293T
Experimental: as §1, §2

wild-type TAS2R16 = target: T14, wild-type TAS2R16 (Homo sapiens, UniProt Q9NYV7); assay: Ca2+ flux assay, HEK-293T cells expressing wild-type TAS2R16 and Gα16gust44; type: cell-based
T14 construct: FLAG (N); expressed in transfected cells; host or cells: HEK-293T
T14 sequence (Q9NYV7 1-291): T5 sequence (Q9NYV7 1-291 W261A) with A261W
Experimental: as §1, §3, §4

L191R TAS2R16 = target: T15, L191R TAS2R16 (Homo sapiens, UniProt Q9NYV7, L191R); assay: Ca2+ flux assay, mutation library clone L191R; type: cell-based; conditions: 3 mM salicin, mean (range, max-min), n=3
T15 construct: Each construct in the mutation library was tested for full-length TAS2R16 translation; V5; expressed in transfected cells; host or cells: HEK-293T
Experimental: as §1, §2

S228T TAS2R16 = target: T16, S228T TAS2R16 (Homo sapiens, UniProt Q9NYV7, S228T); assay: Ca2+ flux assay, mutation library clone S228T; type: cell-based; conditions: library screening concentrations
T16 construct: FLAG (N); expressed in transfected cells; host or cells: HEK-293T
T16 sequence (Q9NYV7 1-291 S228T): T5 sequence (Q9NYV7 1-291 W261A) with S228T, A261W
Experimental: as §1, §3

T3 sequence (Q9NYV7 whole entry N172K): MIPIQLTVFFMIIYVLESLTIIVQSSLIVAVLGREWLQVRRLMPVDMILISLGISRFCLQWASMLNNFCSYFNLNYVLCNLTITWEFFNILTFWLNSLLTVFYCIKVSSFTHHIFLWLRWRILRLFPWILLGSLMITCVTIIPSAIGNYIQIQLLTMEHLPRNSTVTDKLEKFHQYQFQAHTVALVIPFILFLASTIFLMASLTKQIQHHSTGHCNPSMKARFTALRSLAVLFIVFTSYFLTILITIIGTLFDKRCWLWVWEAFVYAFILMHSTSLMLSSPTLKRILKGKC
T1 sequence (Q9NYV7 whole entry D46A): as the sequence (Q9NYV7 whole entry N172K) above, with D46A, K172N counted along it
T12 sequence (Q9NYV7 whole entry M64R): as the sequence (Q9NYV7 whole entry N172K) above, with M64R, K172N counted along it
T15 sequence (Q9NYV7 whole entry L191R): as the sequence (Q9NYV7 whole entry N172K) above, with K172N, L191R counted along it
T7 sequence (Q9NYV7 whole entry C104R): as the sequence (Q9NYV7 whole entry N172K) above, with C104R, K172N counted along it
T13 sequence (Q9NYV7 whole entry C58R): as the sequence (Q9NYV7 whole entry N172K) above, with C58R, K172N counted along it
T6 sequence (Q9NYV7 whole entry M271R): as the sequence (Q9NYV7 whole entry N172K) above, with K172N, M271R counted along it
T8 sequence (Q9NYV7 whole entry I21F): as the sequence (Q9NYV7 whole entry N172K) above, with I21F, K172N counted along it
T4 sequence (Q9NYV7 whole entry Y14H): as the sequence (Q9NYV7 whole entry N172K) above, with Y14H, K172N counted along it
T10 sequence (Q9NYV7 whole entry W61R): as the sequence (Q9NYV7 whole entry N172K) above, with W61R, K172N counted along it
T11 sequence (Q9NYV7 whole entry L134R): as the sequence (Q9NYV7 whole entry N172K) above, with L134R, K172N counted along it
T2 sequence (Q9NYV7 whole entry N96T): as the sequence (Q9NYV7 whole entry N172K) above, with N96T, K172N counted along it
T9 sequence (Q9NYV7 whole entry L276R): as the sequence (Q9NYV7 whole entry N172K) above, with K172N, L276R counted along it

SMILES: OCc1ccccc1O[C@@H]1O[C@H](CO)[C@@H](O)[C@H](O)[C@H]1O [salicin]
- Ca2+ flux in response to salicin (D46A TAS2R16): 8 (9) % of wild-type
- EC50 (N96T TAS2R16): 800 µM
- Ca2+ flux in response to salicin (N172K TAS2R16): 83 (13) % of wild-type and 83 % of wild-type
- EC50 (TAS2R16): 3000 µM
- Ca2+ flux in response to salicin (Y14H TAS2R16): 9 (9) % of wild-type
- EC50 (W261A TAS2R16; Fig. 5b dose-response, W261A TAS2R16): ~13400 µM
- activation of W261A variant (W261A TAS2R16; W261A TAS2R16, relative to wild-type): eliminated activation
- Ca2+ flux in response to salicin (M271R TAS2R16): 7 (6) % of wild-type
- Ca2+ flux in response to salicin (C104R TAS2R16): 9 (1) % of wild-type
- Ca2+ flux in response to salicin (I21F TAS2R16): 9 (5) % of wild-type
- Ca2+ flux in response to salicin (L276R TAS2R16): 17 (7) % of wild-type
- Ca2+ flux in response to salicin (W61R TAS2R16): 15 (7) % of wild-type
- Ca2+ flux in response to salicin (L134R TAS2R16): 1 (8) % of wild-type
- Ca2+ flux in response to salicin (M64R TAS2R16): 14 (1) % of wild-type
- Ca2+ flux in response to salicin (C58R TAS2R16): 5 (2) % of wild-type
- EC50 (wild-type TAS2R16; Fig. 5b dose-response, wild-type TAS2R16, read-out: EC50 (WT)): 1100 µM
- EC50 (wild-type TAS2R16; Fig. 6 comparative dose-response, wild-type TAS2R16, read-out: EC50 (WT)): 1700 µM
- EC50 (wild-type TAS2R16; Fig. 7 dose-response, wild-type TAS2R16, read-out: EC50 (WT)): 5500 µM
- EC50 (wild-type TAS2R16; Fig. 2d dose-response, wild-type TAS2R16, HEK-293T, read-out: EC50): 1200 µM
- activation of wild-type TAS2R16 (wild-type TAS2R16; wild-type TAS2R16, HEK-293T): robust receptor activation
- Ca2+ flux in response to salicin (L191R TAS2R16): 1 (3) % of wild-type
- Ca2+ flux signaling value (S228T TAS2R16): 90 % of wild-type
